Source: ChEMBL document CHEMBL1137160, “Structure-activity relationships of methylene or terminal side chain modified retinoids on the differentiation and cell death signaling in NB4 promyelocytic leukemia cells” (2004)

How the values were obtained:
[1] = target: T1, Retinoic acid receptor gamma (Homo sapiens) (UniProt P13631); assay: Agonist activity for Retinoic acid receptor gamma as photons in presence and absence of ligand; format: functional; parameters: concentration or dose not given beside the values
T1 sequence (whole entry): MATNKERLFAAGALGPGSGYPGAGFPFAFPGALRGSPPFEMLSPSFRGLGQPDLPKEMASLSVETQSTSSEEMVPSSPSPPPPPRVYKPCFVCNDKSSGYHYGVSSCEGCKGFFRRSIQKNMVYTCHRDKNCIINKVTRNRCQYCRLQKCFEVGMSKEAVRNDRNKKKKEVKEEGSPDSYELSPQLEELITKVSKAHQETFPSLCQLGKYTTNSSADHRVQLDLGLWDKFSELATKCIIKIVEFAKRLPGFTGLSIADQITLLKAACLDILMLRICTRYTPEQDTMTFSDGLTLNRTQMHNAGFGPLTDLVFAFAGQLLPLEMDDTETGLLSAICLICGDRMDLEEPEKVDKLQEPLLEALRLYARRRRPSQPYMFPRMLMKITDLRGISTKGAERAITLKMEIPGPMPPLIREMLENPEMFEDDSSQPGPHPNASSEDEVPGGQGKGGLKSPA

NB-4 [2] = assay: Ability to induce maturation and cell death of NB4 cells labelled with V-FITC on day 6; format: functional, Homo sapiens; parameters: concentration or dose not given beside the values
[3] = target: T2, Retinoic acid receptor RXR-beta (Homo sapiens) (UniProt P28702); assay: Agonist activity for Retinoid X receptor beta as photons in presence and absence of ligand; format: functional; parameters: unit not given here
T2 sequence (whole entry): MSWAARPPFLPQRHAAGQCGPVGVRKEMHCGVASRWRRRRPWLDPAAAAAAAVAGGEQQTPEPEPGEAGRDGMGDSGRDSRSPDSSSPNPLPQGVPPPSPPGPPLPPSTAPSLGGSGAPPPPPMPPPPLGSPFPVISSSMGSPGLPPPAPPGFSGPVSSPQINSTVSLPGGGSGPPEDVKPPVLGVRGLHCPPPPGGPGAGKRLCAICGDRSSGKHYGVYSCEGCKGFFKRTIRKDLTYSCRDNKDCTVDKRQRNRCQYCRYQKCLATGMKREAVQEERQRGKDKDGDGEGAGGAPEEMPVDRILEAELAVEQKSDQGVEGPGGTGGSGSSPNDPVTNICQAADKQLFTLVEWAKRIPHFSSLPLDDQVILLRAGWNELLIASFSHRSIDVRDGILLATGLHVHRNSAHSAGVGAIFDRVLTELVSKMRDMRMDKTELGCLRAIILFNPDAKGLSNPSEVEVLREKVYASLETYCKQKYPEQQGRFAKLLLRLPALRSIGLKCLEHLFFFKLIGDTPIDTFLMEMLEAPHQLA

[4] = target: T3, Retinoic acid receptor beta (Homo sapiens) (UniProt P10826); assay: Agonist activity for Retinoic acid receptor beta as photons in presence and absence of ligand; format: functional; parameters: unit not given here
T3 sequence (whole entry): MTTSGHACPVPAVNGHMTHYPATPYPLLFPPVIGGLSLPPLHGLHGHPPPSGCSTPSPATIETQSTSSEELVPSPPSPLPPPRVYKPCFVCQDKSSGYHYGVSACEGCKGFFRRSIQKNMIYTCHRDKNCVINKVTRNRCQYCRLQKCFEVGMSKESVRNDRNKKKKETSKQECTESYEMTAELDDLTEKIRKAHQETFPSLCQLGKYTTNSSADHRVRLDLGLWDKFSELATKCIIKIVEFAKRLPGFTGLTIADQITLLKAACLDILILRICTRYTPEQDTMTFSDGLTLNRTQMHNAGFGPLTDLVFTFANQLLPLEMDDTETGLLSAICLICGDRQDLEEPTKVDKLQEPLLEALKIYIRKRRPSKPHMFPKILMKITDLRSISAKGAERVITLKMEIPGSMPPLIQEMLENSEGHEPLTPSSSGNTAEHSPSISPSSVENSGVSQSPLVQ

NB-4 [5] = assay: Evaluated for mean value of the fluorescence intensity of CD11c-PE expressing NB4 cells at day 6; format: functional, Homo sapiens
[6] = target: T4, Retinoic acid receptor alpha (Homo sapiens) (UniProt P10276); assay: Agonist activity for Retinoic acid receptor alpha as photons in presence and absence of ligand; format: functional; parameters: unit not given here
T4 sequence (whole entry): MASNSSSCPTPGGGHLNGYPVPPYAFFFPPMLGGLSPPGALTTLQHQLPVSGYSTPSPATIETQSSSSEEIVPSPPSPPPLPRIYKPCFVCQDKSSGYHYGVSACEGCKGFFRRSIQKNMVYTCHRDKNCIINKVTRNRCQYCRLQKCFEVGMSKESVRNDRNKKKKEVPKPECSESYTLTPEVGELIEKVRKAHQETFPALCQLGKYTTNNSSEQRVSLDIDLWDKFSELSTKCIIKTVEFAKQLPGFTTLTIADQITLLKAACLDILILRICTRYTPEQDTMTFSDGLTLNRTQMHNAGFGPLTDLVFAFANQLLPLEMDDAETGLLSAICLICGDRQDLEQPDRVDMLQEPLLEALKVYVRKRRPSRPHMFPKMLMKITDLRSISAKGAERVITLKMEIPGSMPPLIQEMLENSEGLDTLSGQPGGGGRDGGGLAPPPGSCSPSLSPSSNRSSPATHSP

NB-4 [7] = assay: Ability to induce maturation and cell death of NB4 cells labelled with V-FITC on day 3; format: functional, Homo sapiens; parameters: concentration or dose not given beside the values
NB-4 [8] = assay: Evaluated for mean value of the fluorescence intensity of CD11c-PE expressing NB4 cells at day 3; format: functional, Homo sapiens

Compound	Activity [1]	Activity (NB-4 [2]) [%]	Activity [3]	Activity [4]	Activity (NB-4 [5])	Activity [6]	Activity (NB-4 [7]) [%]	Activity (NB-4 [8])
C=C(/C=C/C1=C(C)CCCC1(C)C)C/C=C/C(C)=C/C(=O)O	3.3	56	5.8	7.2	163	7	18	117
CC1=C(/C=C/C(C)=C\C=C\C(C)=C\C(=O)O)C(C)(C)CCC1			14.5					
CC1=C(/C=C/C(C)=C/C=C/C(C)=C/C(=O)O)C(C)(C)CCC1 [TRETINOIN]		50			197		14	110
CC1=C(/C=C/C(C)=C/C=C(\C#N)C(C)=C(C(=O)O)C(=O)O)C(C)(C)CCC1	11.7	12	3	17.9	64	22.2	11	77
C/C(=C\c1ccc(C(=O)O)cc1)c1ccc2c(c1)C(C)(C)CCC2(C)C		35			170		14	106
C=C(/C=C/C1=C(C)CCCC1(C)C)C/C=C/C=C\C(=O)O	7.9	12	2	13.1	35	7.1	10	33
C=C(/C=C/C1=C(C)CCCC1(C)C)C/C=C/C(C)=C\C(=O)O	10.9	14	2.1	14.5	43	11.8	11	38
CC1(C)CCC(C)(C)c2cc(C3(c4ccc(C(=O)O)cc4)OCCO3)ccc21		11			23		11	22
COC(=O)\C=C(C)/C(C#N)=C/C=C(C)/C=C/C1=C(C)CCCC1(C)C	3	8	1.6	6.7	10	1.3	13	10
CC1=C(/C=C/C(C)=C/C=C(C#N)/C(C)=C\C(=O)O)C(C)(C)CCC1	8.9	20	2.1	14.6	126	23.5	9	88
C=C(/C=C/c1ccccc1)C/C=C/C(C)=C\C(=O)O	4.6	8	13.5	4	12	4.9	9	15
